{"source": "paper PMC3082441", "about": "(Journal of medicinal chemistry, 2008)", "key": {"human sAC": {"system": "human sAC", "details": "read-out: reported IC50 against human sAC; cited from earlier work"}, "CyaC [1]": {"target": "T1, CyaC (Limnospira platensis, UniProt O32393)", "T1 sequence (O32393 998-1202 limits assumed)": "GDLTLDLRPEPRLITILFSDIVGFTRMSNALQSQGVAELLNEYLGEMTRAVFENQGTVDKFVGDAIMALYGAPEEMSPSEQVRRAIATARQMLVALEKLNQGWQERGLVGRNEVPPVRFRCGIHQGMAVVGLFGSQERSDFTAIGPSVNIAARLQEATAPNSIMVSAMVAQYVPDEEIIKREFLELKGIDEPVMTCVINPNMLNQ", "details": "cited from earlier work"}, "CyaC [2]": {"target": "T1, CyaC"}, "[3]": {"system": "endogenous tmACs expressed in HEK293T cells", "format": "biochemical, mammalian", "details": "100 μM compound"}, "AC1": {"target": "AC1 (Homo sapiens, UniProt Q08828)", "sequence (Q08828 whole entry)": "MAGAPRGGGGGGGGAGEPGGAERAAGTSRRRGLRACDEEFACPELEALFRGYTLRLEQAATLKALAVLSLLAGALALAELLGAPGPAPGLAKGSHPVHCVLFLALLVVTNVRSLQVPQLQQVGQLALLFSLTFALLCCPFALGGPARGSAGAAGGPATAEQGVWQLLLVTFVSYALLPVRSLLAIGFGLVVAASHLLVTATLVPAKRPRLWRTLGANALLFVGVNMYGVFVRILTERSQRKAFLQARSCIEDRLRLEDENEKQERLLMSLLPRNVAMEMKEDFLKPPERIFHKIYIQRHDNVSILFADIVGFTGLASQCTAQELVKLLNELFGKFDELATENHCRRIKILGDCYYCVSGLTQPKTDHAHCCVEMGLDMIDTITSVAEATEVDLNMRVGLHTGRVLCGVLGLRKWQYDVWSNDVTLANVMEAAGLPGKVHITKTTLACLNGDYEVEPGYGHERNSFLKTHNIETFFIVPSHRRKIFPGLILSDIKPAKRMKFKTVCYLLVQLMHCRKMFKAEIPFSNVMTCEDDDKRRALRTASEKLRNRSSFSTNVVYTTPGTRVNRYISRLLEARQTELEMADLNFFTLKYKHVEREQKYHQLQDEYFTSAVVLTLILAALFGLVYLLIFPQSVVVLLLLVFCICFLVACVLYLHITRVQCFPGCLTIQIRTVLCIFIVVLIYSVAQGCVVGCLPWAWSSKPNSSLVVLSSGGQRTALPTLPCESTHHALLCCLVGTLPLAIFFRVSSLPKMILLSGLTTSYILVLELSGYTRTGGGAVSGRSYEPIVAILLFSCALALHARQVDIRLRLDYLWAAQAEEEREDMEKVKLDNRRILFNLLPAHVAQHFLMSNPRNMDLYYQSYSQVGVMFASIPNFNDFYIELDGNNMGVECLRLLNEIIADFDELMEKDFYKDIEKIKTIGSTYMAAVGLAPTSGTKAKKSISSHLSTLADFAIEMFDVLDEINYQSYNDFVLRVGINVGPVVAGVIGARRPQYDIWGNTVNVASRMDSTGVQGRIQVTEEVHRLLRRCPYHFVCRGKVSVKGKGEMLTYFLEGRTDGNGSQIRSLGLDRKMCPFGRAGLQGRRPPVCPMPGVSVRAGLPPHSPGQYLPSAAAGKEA", "details": "100 μM compound; forskolin-stimulated; transfected HEK293T lysate"}, "AC9": {"target": "T2, AC9 (Homo sapiens, UniProt O60503)", "T2 sequence (O60503 1-1353)": "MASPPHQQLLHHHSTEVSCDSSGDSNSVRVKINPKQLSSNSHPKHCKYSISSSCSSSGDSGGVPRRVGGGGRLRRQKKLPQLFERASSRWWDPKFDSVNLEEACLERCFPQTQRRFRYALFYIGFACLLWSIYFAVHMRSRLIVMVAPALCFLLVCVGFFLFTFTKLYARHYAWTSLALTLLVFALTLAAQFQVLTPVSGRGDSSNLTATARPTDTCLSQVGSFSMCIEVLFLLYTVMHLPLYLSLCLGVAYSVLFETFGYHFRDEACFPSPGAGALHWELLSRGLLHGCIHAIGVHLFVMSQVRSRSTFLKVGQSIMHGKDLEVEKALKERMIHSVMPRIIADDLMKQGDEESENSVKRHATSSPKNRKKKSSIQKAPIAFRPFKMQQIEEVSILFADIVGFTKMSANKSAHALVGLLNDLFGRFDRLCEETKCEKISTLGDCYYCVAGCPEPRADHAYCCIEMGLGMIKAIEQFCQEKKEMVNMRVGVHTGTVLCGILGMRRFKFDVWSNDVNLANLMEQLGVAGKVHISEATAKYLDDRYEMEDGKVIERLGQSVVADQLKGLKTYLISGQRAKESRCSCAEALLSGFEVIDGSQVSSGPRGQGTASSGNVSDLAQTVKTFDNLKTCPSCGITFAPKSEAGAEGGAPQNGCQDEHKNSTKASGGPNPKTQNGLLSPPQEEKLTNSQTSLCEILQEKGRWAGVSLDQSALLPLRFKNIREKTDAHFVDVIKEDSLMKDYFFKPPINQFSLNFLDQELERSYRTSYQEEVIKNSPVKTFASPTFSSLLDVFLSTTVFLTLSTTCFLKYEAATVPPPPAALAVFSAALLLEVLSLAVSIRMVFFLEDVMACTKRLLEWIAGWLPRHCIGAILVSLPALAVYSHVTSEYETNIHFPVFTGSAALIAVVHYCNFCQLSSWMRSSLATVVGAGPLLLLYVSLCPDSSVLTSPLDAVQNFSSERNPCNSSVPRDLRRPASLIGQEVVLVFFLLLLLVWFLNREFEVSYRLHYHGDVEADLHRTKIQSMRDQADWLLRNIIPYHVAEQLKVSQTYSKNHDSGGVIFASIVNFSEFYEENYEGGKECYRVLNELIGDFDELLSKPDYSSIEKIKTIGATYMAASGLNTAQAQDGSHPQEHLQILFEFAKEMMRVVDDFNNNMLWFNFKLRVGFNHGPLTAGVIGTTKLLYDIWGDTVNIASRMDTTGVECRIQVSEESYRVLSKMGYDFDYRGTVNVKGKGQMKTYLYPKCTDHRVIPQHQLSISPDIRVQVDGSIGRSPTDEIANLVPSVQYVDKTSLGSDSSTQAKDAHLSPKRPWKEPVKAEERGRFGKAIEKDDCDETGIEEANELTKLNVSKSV", "details": "100 μM compound, transfected HEK293T lysate"}, "AC5": {"target": "AC5 (Homo sapiens, UniProt O95622)", "sequence (O95622 whole entry, species assumed)": "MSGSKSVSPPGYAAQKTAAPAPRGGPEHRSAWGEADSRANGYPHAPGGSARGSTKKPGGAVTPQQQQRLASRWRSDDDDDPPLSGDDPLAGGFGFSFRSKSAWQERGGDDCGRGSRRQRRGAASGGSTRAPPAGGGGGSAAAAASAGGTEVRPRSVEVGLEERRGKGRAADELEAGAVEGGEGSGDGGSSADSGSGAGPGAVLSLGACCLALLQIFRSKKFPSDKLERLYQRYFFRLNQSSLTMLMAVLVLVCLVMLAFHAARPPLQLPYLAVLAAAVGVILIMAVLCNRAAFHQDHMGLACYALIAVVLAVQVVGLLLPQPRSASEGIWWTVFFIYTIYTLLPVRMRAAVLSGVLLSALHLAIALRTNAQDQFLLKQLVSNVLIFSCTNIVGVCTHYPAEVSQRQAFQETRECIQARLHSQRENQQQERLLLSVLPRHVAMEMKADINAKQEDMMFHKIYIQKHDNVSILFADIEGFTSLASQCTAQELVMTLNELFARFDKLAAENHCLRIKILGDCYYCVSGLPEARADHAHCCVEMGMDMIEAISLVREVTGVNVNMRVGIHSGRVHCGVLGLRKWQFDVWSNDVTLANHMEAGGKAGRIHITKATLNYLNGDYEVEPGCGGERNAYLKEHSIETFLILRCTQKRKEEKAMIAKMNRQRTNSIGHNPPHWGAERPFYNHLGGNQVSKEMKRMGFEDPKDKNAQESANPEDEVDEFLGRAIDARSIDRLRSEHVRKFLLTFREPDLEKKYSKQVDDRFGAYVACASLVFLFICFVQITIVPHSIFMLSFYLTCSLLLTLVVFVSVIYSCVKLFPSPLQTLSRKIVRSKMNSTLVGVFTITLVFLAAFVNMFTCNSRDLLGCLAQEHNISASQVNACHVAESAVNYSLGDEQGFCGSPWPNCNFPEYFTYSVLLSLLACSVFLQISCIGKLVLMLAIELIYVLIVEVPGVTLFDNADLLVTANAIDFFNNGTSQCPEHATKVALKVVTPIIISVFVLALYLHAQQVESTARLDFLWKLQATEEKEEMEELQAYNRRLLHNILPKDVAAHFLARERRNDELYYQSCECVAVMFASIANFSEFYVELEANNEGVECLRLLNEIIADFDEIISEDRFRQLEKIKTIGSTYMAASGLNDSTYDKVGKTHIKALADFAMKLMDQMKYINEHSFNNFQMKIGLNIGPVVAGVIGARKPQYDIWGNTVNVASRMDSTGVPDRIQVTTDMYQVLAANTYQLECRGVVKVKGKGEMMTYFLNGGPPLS", "details": "100 μM compound; forskolin-stimulated; transfected HEK293T lysate"}, "mammalian sAC": {"target": "T3, mammalian sAC (Homo sapiens, UniProt Q96PN6)", "T3 sequence (Q96PN6 1-469)": "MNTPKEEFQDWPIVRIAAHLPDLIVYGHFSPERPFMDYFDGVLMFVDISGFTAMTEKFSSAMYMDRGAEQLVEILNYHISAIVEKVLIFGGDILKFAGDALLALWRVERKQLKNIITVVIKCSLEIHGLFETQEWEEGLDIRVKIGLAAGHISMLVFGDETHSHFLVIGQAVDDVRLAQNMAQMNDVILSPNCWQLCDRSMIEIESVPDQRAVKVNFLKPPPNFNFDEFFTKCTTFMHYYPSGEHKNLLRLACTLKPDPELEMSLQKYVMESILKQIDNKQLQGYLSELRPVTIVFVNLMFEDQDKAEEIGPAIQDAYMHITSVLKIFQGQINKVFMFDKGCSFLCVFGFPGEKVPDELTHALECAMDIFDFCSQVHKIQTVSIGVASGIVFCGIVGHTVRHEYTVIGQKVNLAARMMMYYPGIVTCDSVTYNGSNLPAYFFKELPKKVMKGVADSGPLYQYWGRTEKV", "experiment": "Activity assay with purified, recombinant mammalian sAC", "format": "biochemical, human or rat", "details": "dose-response curve"}, "AC2": {"target": "AC2 (Homo sapiens, UniProt Q08462)", "sequence (Q08462 whole entry)": "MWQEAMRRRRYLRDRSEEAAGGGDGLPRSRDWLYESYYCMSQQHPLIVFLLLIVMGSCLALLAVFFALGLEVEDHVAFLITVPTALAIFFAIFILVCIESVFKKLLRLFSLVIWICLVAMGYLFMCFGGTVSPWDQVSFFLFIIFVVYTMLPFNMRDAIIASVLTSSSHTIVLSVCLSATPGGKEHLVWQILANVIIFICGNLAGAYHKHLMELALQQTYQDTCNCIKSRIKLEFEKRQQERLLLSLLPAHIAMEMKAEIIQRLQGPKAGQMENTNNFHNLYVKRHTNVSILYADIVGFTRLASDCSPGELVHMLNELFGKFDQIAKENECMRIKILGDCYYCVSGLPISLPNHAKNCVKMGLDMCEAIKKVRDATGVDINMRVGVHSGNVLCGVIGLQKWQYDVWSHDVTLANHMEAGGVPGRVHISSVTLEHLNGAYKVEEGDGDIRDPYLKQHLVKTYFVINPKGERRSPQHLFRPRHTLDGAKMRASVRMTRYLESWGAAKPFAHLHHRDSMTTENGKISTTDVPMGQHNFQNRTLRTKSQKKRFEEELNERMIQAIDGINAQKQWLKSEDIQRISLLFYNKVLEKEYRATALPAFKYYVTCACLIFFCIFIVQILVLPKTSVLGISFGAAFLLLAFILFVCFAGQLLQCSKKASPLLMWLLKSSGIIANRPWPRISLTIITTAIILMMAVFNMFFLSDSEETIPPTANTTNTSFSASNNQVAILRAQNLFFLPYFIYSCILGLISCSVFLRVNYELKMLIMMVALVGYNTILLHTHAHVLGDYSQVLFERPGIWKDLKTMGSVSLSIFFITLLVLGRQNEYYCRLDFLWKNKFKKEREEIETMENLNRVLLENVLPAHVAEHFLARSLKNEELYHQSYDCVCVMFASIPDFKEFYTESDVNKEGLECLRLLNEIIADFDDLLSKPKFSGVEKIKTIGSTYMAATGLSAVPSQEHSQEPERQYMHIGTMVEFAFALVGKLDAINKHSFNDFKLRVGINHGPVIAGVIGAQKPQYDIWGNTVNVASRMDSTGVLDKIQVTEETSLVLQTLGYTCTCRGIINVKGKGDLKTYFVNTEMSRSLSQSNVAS"}, "CyaC [4]": {"target": "T1, CyaC", "experiment": "biochemical", "details": "read-out: IC50 against CyaC in vitro (estimated)"}}, "note": "Read-outs that look alike come from different tables or passages of the source."}
{"smiles": "C[C@H]1O[C@@H](n2cnc3c(N)ncnc32)C[C@@H]1OP(=O)(O)OP(=O)(O)OP(=O)(O)O", "note": "[2′,5′-didesoxy-3′-ATP]", "values": [{"measurement": "IC50", "setting": "human sAC", "result": 0.7, "unit": "µM"}]}
{"smiles": "C[C@]12CC[C@@H]3c4cc(O)c(O)cc4CC[C@H]3[C@@H]1CC[C@@H]2O", "note": "[Compound 1, 2-hydroxy-17β-estradiol]", "values": [{"measurement": "Mode of inhibition with respect to ATP (reported)", "setting": "CyaC [1]", "result": "noncompetitive inhibitor"}]}
{"smiles": "C[C@]12CC[C@H]3[C@@H](CCC4=CC(=O)CC[C@@]43C)[C@@H]1CC[C@@H]2C(=O)COS(=O)(=O)c1ccc(Br)cc1", "note": "[Compound 2, 3,20-dioxopregn-4-en-21-yl 4-bromobenzenesulfonate]", "values": [{"measurement": "Vmax of CyaC", "setting": "CyaC [2]; 1 μM inhibitor", "result": 0.38, "unit": "nmol/mg/min"}, {"measurement": "Vmax of CyaC", "setting": "CyaC [2]; […] inhibitor", "result": 0.29, "unit": "nmol/mg/min"}, {"measurement": "Vmax of CyaC", "setting": "CyaC [2]; […] μM inhibitor", "result": 0.08, "unit": "nmol/mg/min"}, {"measurement": "Mode of inhibition with respect to ATP", "setting": "CyaC [2]; various substrate concentrations at fixed inhibitor amounts", "result": "noncompetitive inhibitor"}, {"measurement": "Inhibition of forskolin-stimulated AC activity in HEK293T whole cell extracts", "setting": "[3]", "result": "no significant inhibition"}, {"measurement": "Inhibition of AC1 activity", "setting": "AC1", "result": "did not significantly inhibit"}, {"measurement": "Effect on basal AC9 activity", "setting": "AC9", "result": "did not appreciably affect"}, {"measurement": "Inhibition of AC5 activity", "setting": "AC5", "result": "did not significantly inhibit"}]}
{"smiles": "O=C(O)c1cc2c(cc1S(=O)(=O)O)C1C(C3C2C2(Cl)C(Cl)=C(Cl)C3(Cl)C2(Cl)Cl)C2(Cl)C(Cl)=C(Cl)C1(Cl)C2(Cl)Cl", "note": "(stereo not drawn) [Compound 3, 1,2,3,4,5,6,7,8,13,13,14,14-dodecachloro-1,4,4a,4b,5,8,8a, 12b-octahydro-11-sulfo-1,4:5,8-dimethanotriphenylene-10-carboxylic acid]", "values": [{"measurement": "Hill coefficient for sAC inhibition", "setting": "mammalian sAC", "result": 2.0}, {"measurement": "Inhibition of AC1 activity", "setting": "AC1", "result": "only moderate inhibition"}, {"measurement": "Inhibition of basal AC2 activity", "setting": "AC2; 100 μM compound, basal, transfected HEK293T lysate", "result": "only moderate inhibition"}, {"measurement": "Effect on AC2 in the presence of forskolin", "setting": "AC2; in the presence of forskolin, data not shown", "result": "stimulation"}, {"measurement": "Effect on basal AC9 activity", "setting": "AC9", "result": "only moderate inhibition"}, {"measurement": "Inhibition of AC5 activity", "setting": "AC5", "result": "only moderate inhibition"}]}
{"smiles": "BrC(c1cccc2ccccc12)c1cccc2ccccc12", "note": "[Compound 4, 1-(bromo(1-naphthyl)methyl)naphthalene]", "values": [{"measurement": "potency estimated from few doses", "setting": "CyaC [4]", "result": "~200", "unit": "µM"}]}
{"smiles": "C[C@H]1[C@H](C)CC[C@]2(C(=O)O)CC[C@]3(C)C(=CC[C@@H]4[C@@]5(C)C[C@@H](O)[C@H](O)[C@@](C)(CO)[C@@H]5[C@H](O)C[C@]43C)[C@H]12", "note": "[Compound 8, 2,3,6,23-tetrahydroxyurs-12-en-28-oic acid]", "values": [{"measurement": "potency estimated from few doses", "setting": "CyaC [4]", "result": "~100", "unit": "µM"}]}
